Data taken from patent US4610994A, “1,2,3-triazole anticonvulsant drugs” (priority 1984, dated 1986).
Several values for one entry are separate records, joined by “and”; a condition that tells them apart may be missing. Equal entries are not always repeated. Entries after “also recorded” stand apart in the source; their conditions may differ. Where two headings read alike, the source gives them in different places.

Experiments:
[1] = format: in vivo; details: mice, subcutaneous
Excerpt: (§3) The profile of anticonvulsant activity for each substance was established by five tests: one electrical and four chemical. The electrical test employed was the maximal electroshock seizure pattern test. […] Except for the sc Strych Test, these tests measure the ability of anticonvulsants to afford complete protection against threshold seizures induced by the subcutaneous injection of the CD97 of the convulsant agent.

[2] = sc convulsant dose CD97 in rats; format: in vivo; details: Rattus norvegicus, subcutaneous
Excerpt: as §3

hexobarbital sleep time = hexobarbital sleep time after chronic administration in rats; format: in vivo
Protocol: (§1) Phase VII studies of Compound 10 included five-day LD3, five-day tolerance studies, and effect of chronic administration on the liver microsomal enzyme system. The five-day oral LD3 of Compound 10 is <300 mg/kg in male rats and >300 mg/kg in female rats.

[3] = test system: maximal electroshock seizures; assay: maximal electroshock seizure (MES) pattern test in mice; details: for ED97 / Safety ratio (TD3/ED97): MES
Protocol: (§4) All animals were allowed free access to both food (S/L Custom Lab Diet-7) and water, except when they were removed from their cages for the experimental procedure.
(§5) The drugs were administered either orally or intraperitoneally in a volume of 0.01 ml/g body weight in mice and 0.04 ml/10 g in rats. All tests were conducted at the previously determined time of peak drug effect.
as §3

[4] = Phase III toxicity profile (overt signs and symptoms) in mice i.p.; details: for Profile of acute toxicity, 1 x TD50: 1TD50; for Profile of acute toxicity, 2 x TD50: 2TD50
Protocol: (§6) The profile of toxicity for each test drug was established by the following procedures: Firstly, the minimal neurotoxic dose (TD50) was determined by the rotorod procedure at the time of peak neurotoxic effect. When a normal mouse is placed on a knurled rod one inch in diameter rotating at a speed of six rpm it can maintain its equilibrium for long periods of time. Neurological deficit is indicated by inability of the mouse to maintain its equilibrium for one minute in each of three trials on this rotating rod. […] The HD50 represents the median dose at which 50% of animals lose their righting reflex.

[5] = test system: maximal electroshock seizures; assay: maximal electroshock seizure (MES) pattern test in rats
Protocol: as §4, §5, §3

[6] = as above; details: rat, in vivo, po, Safety ratio (TD3/ED97), rats, MES
Protocol: as §4, §5, §3

in vivo [7] = details: mouse
Protocol: as §4, §5, §3
(§7) All convulsants were administered subcutaneously into a loose fold of skin on the back of the neck in a volume of 0.01 ml/g body weight in mice; Metrazol was injected in a volume of 0.02 ml/10 g body weight in rats. The convulsant drugs were administered at the previously determined time of peak anticonvulsant action of the drug under study. […] Except for strychnine, absence of a five-second episode of clonic spasms (threshold seizure) was taken as protection. In the case of strychnine, complete abolition of the hindleg tonic extension was taken as protection.

[8] = test system: subcutaneous Metrazol seizures; assay: subcutaneous Metrazol Seizure Threshold Test (sc Met) in mice; details: for ED97: sc Met
Protocol: as §4, §5, §3, §7

[9] = test system: p-nitroanisole O-demethylase; assay: effect of chronic administration on liver p-nitroanisole O-demethylase; format: in vivo, rats
Protocol: as §1
(§2) Thus, the estimated five-day LD3 for Compound 10 is <300 mg/kg in male rats and >300 but <1000 mg/kg in female rats.

[10] = 24-hour lethality (LD50) in mice i.p.
[11] = minimal neurotoxicity (ataxia, loss of placing response and muscle tone) in rats; details: for TD3: oral
Protocol: as §4, §5
(§8) The profile of toxicity for each test drug was established by the following procedures: Firstly, the minimal neurotoxic dose (TD50) was determined by the rotorod procedure at the time of peak neurotoxic effect. When a normal mouse is placed on a knurled rod one inch in diameter rotating at a speed of six rpm it can maintain its equilibrium for long periods of time. Neurological deficit is indicated by inability of the mouse to maintain its equilibrium for one minute in each of three trials on this rotating rod. Neurological deficit in rats is indicated by ataxia, loss of placing response and muscle tone.

[12] = test system: maximal electro-shock seizure (MES) and subcutaneous pentylenetetrazole (Metrazole) seizure threshold (scMet); assay: Phase I anticonvulsant screening (MES test and scMet test); format: in vivo, mouse; details: at effective dose levels (Class I) or 300 mg/kg (8, 13)
cytochrome P-450 = assay: effect of chronic administration on liver microsomal cytochrome P-450; format: in vivo, rats
Protocol: as §1, §2

[13] = test system: subcutaneous Metrazol seizures; assay: subcutaneous Metrazol Seizure Threshold Test (sc Met) in rats
Protocol: as §4, §5, §3, §7

[14] = oral absorption in mice from oral/i.p. ratios; format: in vivo
Excerpt: The extent of oral absorption can be determined from the ratio of the oral ED50/i.p. […] The oral TD50/i.p. TD50 and oral ED50/i.p.

cytochrome C reductase = assay: effect of chronic administration on liver cytochrome C reductase; format: in vivo, rats
Protocol: as §1, §2

[15] = loss of righting reflex (HD50) in mice i.p.; design: species or system mice (male albino, CF No. 1)
Protocol: as §6

[16] = test system: subcutaneous Picrotoxin seizures; assay: subcutaneous Picrotoxin Seizure Threshold Test (sc Pic) in mice; format: in vivo, mice (male albino, CF No. 1); details: mice i.p.; Compound 10 up to 300 mg/kg
Protocol: as §4, §5, §3, §7

[17] = test system: maximal electroshock seizures; assay: five-day tolerance study in rats (MES test); format: in vivo
Protocol: as §1, §2

[18] = five-day oral LD3 in rats; format: in vivo
Protocol: as §1, §2

in vivo [19] = details: mouse, po
Protocol: as §4, §5, §3

in vivo [20] = details: mouse; remark: listed apart in the source
Protocol: as §4, §5, §8

in vivo [21] = details: mouse, ip
[22] = test system: subcutaneous Strychnine seizures; format: in vivo, mice (male albino, CF No. 1)
Protocol: as §4, §5, §3, §7

[23] = test system: subcutaneous Bicuculline seizures; assay: subcutaneous Bicuculline Seizure Threshold Test (sc Bic) in mice; format: in vivo, mice (male albino, CF No. 1); details: mice i.p.; Compound 10 up to 300 mg/kg
Protocol: as §4, §5, §3, §7

in vivo [24] = details: rat, po
Protocol: as §4, §5, §8

[25] = rats, oral, higher doses; cited from earlier work
[26] = mice, i.p., 95% confidence interval
[27] = rats, acute (single dose) control group
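For Rotorod TD50 in this document: mice on rotorod: neurological deficit scored when the animal cannot keep balance for 1 min in every one of three trials on a 1-inch knurled rod turning at 6 rpm.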
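For TPE by the rotorod test in this document: mice on rotorod: neurological deficit scored when the animal cannot keep balance for 1 min in every one of three trials on a 1-inch knurled rod turning at 6 rpm.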
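For rotorod toxicity in this document: mice on rotorod: neurological deficit scored when the animal cannot keep balance for 1 min in every one of three trials on a 1-inch knurled rod turning at 6 rpm.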
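For time of peak effect (TPE), rotorod toxicity test in this document: mice on rotorod: neurological deficit scored when the animal cannot keep balance for 1 min in every one of three trials on a 1-inch knurled rod turning at 6 rpm.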

SMILES: C1CCc2nnnn2CC1 [Metrazol]
- sc CD97 [1]: 85 mg/kg
- ED97 [2]: 70 mg/kg

SMILES: Clc1ccc(-n2nncc2-c2cccnc2)cc1 [Compound 10, 1-(para-chlorophenyl)-5-(3-pyridyl)-1H-1,2,3-triazole]
- hexobarbital sleep time (hexobarbital sleep time; acute (single dose) control group): 16.3 ± 1.2 min
- hexobarbital sleep time (hexobarbital sleep time; chronic-treated group): 15.0 ± 2.0 min
- oral ED50/i.p. ED50 ratio, MES ([3]; mice): 2.00
- toxicity of doses giving 97% protection, MES or sc Met test ([3]; mice and rats, oral): toxic doses are required to protect 97% of animals
- time of peak effect (TPE), anticonvulsant tests ([3]; mice i.p., anticonvulsant tests (MES, sc Met)): 30 min
- mice protected in the MES test at nontoxic doses ([3]; mice, i.p.): 97%
- protective index (TD50/ED50) by the MES test ([3]; mice, i.p.): 3.72
- ED97 ([3]; mice, i.p.): 145
- Safety ratio (TD3/ED97) ([3]; mice, i.p.): 1.2
- MES ED50 [3, 26]: 65.76 mg/kg and 65.76(51.82-83.19) mg/kg
- ED97 ([3]; mice, oral): 275
- Safety ratio (TD3/ED97) ([3]; mice, oral): 0.6
- MES ED50 ([3]; mice, p.o.): 131.67 mg/kg
- potency relative to phenobarbital, MES test ([3]; mice, p.o.): 1/6
- potency relative to phenytoin, MES test ([3]; mice, p.o.): 1/15
- Profile of acute toxicity, 1 x TD50 [4]: decreased motor activity, rotorod toxicity, ataxia, and decreased respiration; also recorded: normal after 24 hours; also recorded: normal at 24 hrs
- Profile of acute toxicity, 2 x TD50 [4]: cyanosis, muscle relaxation, and loss of righting reflex; also recorded: dead after 24 hours
- Profile of acute toxicity, 4 x TD50 ([4]; 4TD50): displayed all the symptoms characteristic of those given 1TD50 and 2TD50's of the test drug; however, the symptoms were more intense; also recorded: dead 4 hours after drug administration and the other was dead at 24 hours
- ED97 ([5]; Rattus norvegicus, po): 215 mg/kg
- ED50 ([5]; Rattus norvegicus, po, read-out: MES ED50): 49.9 mg/kg
- 97% protection by the MES and sc Met tests in nontoxic doses ([5]; rats, oral): do not provide 97% protection
- TPE by the MES and sc Met tests ([5]; rats, p.o.): four
- selectivity ratio [6]: 0.07
- selectivity ratio (in vivo [7]; ip): 9.07
- selectivity ratio (in vivo [7]; po): 5.37
- oral ED50/i.p. ED50 ratio, sc Met ([8]; mice): 5.03
- toxicity of doses giving 97% protection, sc Met test ([8]; mice, i.p.): toxic doses are required
- ED97 ([8]; mice, i.p.): 900
- sc Met ED50 [8, 26]: 26.95 mg/kg and 26.95(9.89-55.08) mg/kg
- ED97 ([8]; mice, oral): 980
- sc Met ED50 ([8]; mice, p.o.): 135.67 mg/kg
- potency by the sc Met test in mice relative to rats ([8]; oral administration): about 21/2
- p-nitroanisole O-demethylase ([9]; chronically treated rats): 0.640±0.098 n moles/mg/min
- p-nitroanisole O-demethylase [9, 27]: 0.261±0.035 n moles/mg/min
- increase in p-nitroanisole O-demethylase ([9]; rats, chronic vs acute): 145%
- LD50/HD50 ratio [10]: 1.08
- LD50/TD50 ratio [10]: 2.33
- neurotoxicity in rats relative to mice ([11]; oral administration): approximately 16 times
- TD50 ([11]; rat, in vivo, po): 44.5 mg/kg
- TD3 ([11]; rats, MES): 16
- TD3 ([11]; rats, sc Met): 16
- TPE by the toxicity test ([11]; rats, p.o.): two
- TD50 ([11]; rats, p.o., 95% confidence interval): 44.48 (32.78-62.61) mg/kg
- signs of neurological deficit [12]: do not exhibit significant signs of neurological deficit
- cytochrome P-450 (cytochrome P-450; chronically treated rats): 0.988±0.096 n moles/mg
- cytochrome P-450 (cytochrome P-450; [27]): 0.720±0.054 n moles/mg
- increase in liver cytochrome P-450 (cytochrome P-450; rats, chronic vs acute): 37%
- ED97 ([13]; oral, sc Met): > 10000
- Safety ratio (TD3/ED97) ([13]; oral, sc Met): 0.002
- sc Met ED50 ([13]; p.o.): 329.18 mg/kg
- oral absorption [14]: adequately absorbed in mice after oral administration
- cytochrome C reductase (cytochrome C reductase; chronically treated rats): 219±24 n moles/mg/min
- cytochrome C reductase (cytochrome C reductase; [27]): 157±11 n moles/mg/min
- increase in cytochrome C reductase (cytochrome C reductase; rats, chronic vs acute): 40%
- toxicity (300 mg/kg, four hours after administration): one of two animals
- Rotorod toxicity (300 mg/kg, thirty minutes after administration): all four animals
- time of peak effect (TPE), rotorod toxicity test (mice, i.p.): 60 min
- TD3 (mice, i.p., MES): 175
- TD3 (mice, i.p., sc Met): 175
- Rotorod TD50 [26]: 244.51(221.82-275.17) mg/kg and 244.51(222.82-275.17) mg/kg
- TD3 (mice, oral, MES): 173
- TD3 (mice, oral, sc Met): 173
- TPE by the rotorod test (mice, p.o.): six
- TD50 (mice, p.o., 95% confidence interval): 729.08 (492.47-1009.17) mg/kg
- HD50 (righting reflex) ([15]; mouse, in vivo, ip): 525.98(473.77-564.48) mg/kg
- time of peak toxicity (TPE), righting reflex ([15]; mouse, in vivo, ip): 6 h
- TD50 ([15]; mouse, in vivo, ip, HD50 (righting reflex)): 526 mg/kg
- effectiveness by the sc Pic test [16]: ineffectiveness; also recorded: ineffective in doses up to 300 mg/kg
- MES test, animals protected ([17]; acute (single dose, 50 mg/kg) control group, 50 mg/kg): 6 of 8 protected and 6 of 8 rats protected
- MES test, animals protected ([17]; chronic-treated group, five daily doses of 50 mg/kg): 1 of 8 protected
- tolerance to the anticonvulsant effects ([17]; five days): significant tolerance occurs within this period of time
- five-day oral LD3 ([18]; male rats): < 300 mg/kg
- five-day oral LD3 ([18]; rat, in vivo, po, 7200 min): > 300 mg/kg
- toxicity, male vs female rats ([18]; rats, chronic): more toxic in male than in female rats
- selectivity ratio (in vivo [19]): 5.54
- TD50 (in vivo [20]; ip): 245 mg/kg
- TD50 (in vivo [20]; po): 729 mg/kg
- LD50 at 24 h (in vivo [21]): 569 mg/kg
- effectiveness by the sc Strych test ([22]; mice i.p., Compound 10 up to 300 mg/kg): ineffectiveness; also recorded: ineffective in doses up to 300 mg/kg
- effectiveness by the sc Bic test [23]: ineffectiveness; also recorded: ineffective in doses up to 300 mg/kg

SMILES: O=C1NC(=O)C(c2ccccc2)(c2ccccc2)N1 [Phenytoin]
- Profile of acute toxicity, 1 x TD50 [4]: activity, slight ataxia, fre-
- Profile of acute toxicity, 2 x TD50 [4]: Mild ataxia,
- effectiveness by the sc Met test ([8]; mice i.p., listed as phenytoin): did not protect against subcutaneous Metrazol seizures
- effectiveness by the sc Met test ([8]; mice, i.p.): ineffective
- sc Met ED50 [8, 26]: > 300 mg/kg
- effectiveness by the sc Met test ([13]; p.o.): ineffective
- TD50 (in vivo [24]): > 3000 mg/kg
- absorption from the gastrointestinal tract [25]: absorbed only to a limited extent
- time of peak toxicity, rotorod (mouse, in vivo, ip): 2 h
- HD50 (righting reflex) [15, 26]: 178.34(152.93-195.45) mg/kg
- HD50 (righting reflex) ([15]; mice, i.p., 95% confidence interval, listed as phenytoin): 178.34 mg/kg
- time of peak toxicity (TPE), righting reflex ([15]; mouse, in vivo, ip): 12 h
- effectiveness by the sc Pic test [16]: ineffective
- animals protected in the sc Strych test ([22]; mice, i.p.): 50%
- effectiveness by the sc Bic test [23]: ineffective
